IC50, Activity and inhibition data for seven molecules are collected here from ChEMBL document CHEMBL4177613, “Development of photoaffinity derivatives of the antitumor macrolide aplyronine A, a PPI-inducer between actin and tubulin” (Bioorg Med Chem, 2017).

Calls of active or inactive are those of the source. The rule behind the calls is not given here.

The test system of one experiment is HeLa S3. Briefly: Cytotoxicity against human HeLaS3 cells after 96 hrs by MTT assay. Format: functional, cell-based. As to conditions: HeLa S3, 96 h. Background: Tetrazolium dyes change colour on reduction, which living cells bring about.
The species named for experiment [1] is Oryctolagus cuniculus. Briefly: Binding affinity to rabbit skeletal muscle actin preincubated for 30 mins followed by UV irradiation of 0.8 mW for 15 mins measured after 30 mins by TAMRA azide-based fluorescence SDS-PAGE analysis.
The species entered for a further experiment is Sus scrofa. Briefly: Binding affinity to pig brain tubulin preincubated for 30 mins followed by UV irradiation of 0.8 mW for 15 mins measured after 30 mins by TAMRA azide-based fluorescence SDS-PAGE analysis.
Experiment [2] in a line: Binding affinity to rabbit skeletal muscle actin/porcine brain tubulin preincubated for 30 mins followed by UV irradiation of 0.8 mW for 15 mins measured after 30 mins by TAMRA azide-based fluorescence SDS-PAGE analysis.
The species named for experiment [3] is Oryctolagus cuniculus. Briefly: Inhibition of rabbit skeletal muscle F-actin polymerization at 3 uM after 1 hr by SDS-PAGE assay.
Experiment [4] in a line: Binding affinity to rabbit skeletal muscle actin/pig brain tubulin preincubated for 60 mins followed by UV irradiation for 15 mins in presence of aplyronine A by SDS-PAGE analysis.
The species entered for experiment [5] is Oryctolagus cuniculus. Briefly: Binding affinity to rabbit skeletal muscle actin preincubated for 60 mins followed by UV irradiation for 15 mins in presence of aplyronine A by SDS-PAGE analysis.

In the case of `C#CCNC(=O)[C@H](CCCCNC(=O)CON=CC[C@@H](C)[C@@H](OC(C)=O)[C@@H](C)[C@@H](CC[C@H](C)[C@H](O)[C@H](C)[C@@H]1C/C=C/[C@H](OC)C[C@H](C)C/C=C(\C)[C@@H](OC)CC[C@@H](C)[C@@H](O)[C@H](C)[C@H](OC(=O)C(COC)N(C)C)C/C=C/C=C/C(=O)O1)OC(=O)[C@H](C)N(C)C)NC(=O)c1ccc(C2(C(F)(F)F)N=N2)cc1` (stereo not given in full), in the experiment on HeLa S3, inhibition was half-maximal at 0.76 nM (IC50). The result in the experiment filed under Oryctolagus cuniculus [1] was Active.
For `C#CCNC(=O)[C@H](CCCCNC(=O)CON=CC[C@@H](C)[C@@H](OC(C)=O)[C@@H](C)[C@@H](CC[C@H](C)[C@H](O)[C@H](C)[C@@H]1C/C=C/[C@H](OC)C[C@H](C)C/C=C(\C)[C@@H](OC)CC[C@@H](C)[C@@H](O)[C@H](C)[C@H](OC(=O)C(COC)N(C)C)C/C=C/C=C/C(=O)O1)OC(=O)[C@H](C)N(C)C)NC(=O)CCC(=O)NCCCOCCOCCOCCCNC(=O)c1ccc(C2(C(F)(F)F)N=N2)cc1` (stereo not given in full), the midpoint of inhibition in the experiment with HeLa S3, the IC50, lay at 1.2 nM. In addition, the result (in the experiment listed under Sus scrofa; in experiment [2]) was inactive. Further, in the experiment listed under Oryctolagus cuniculus [1], the result was Active. Moreover, the inhibition result in the experiment filed under Oryctolagus cuniculus [3] was “Active”.
With `COCC(C(=O)O[C@@H]1C/C=C/C=C/C(=O)O[C@H]([C@@H](C)[C@@H](O)[C@@H](C)CC[C@@H](OC(=O)[C@H](C)N(C)C)[C@H](C)[C@H](OC(C)=O)[C@H](C)CC=NOCC(=O)NCCCC[C@H](NC(=O)c2ccc(C3(C(F)(F)F)N=N3)cc2)C(=O)NCCCOCCOCCOCCCNC(=O)CCCC[C@@H]2SC[C@@H]3NC(=O)N[C@@H]32)C/C=C/[C@H](OC)C[C@H](C)C/C=C(\C)[C@@H](OC)CC[C@@H](C)[C@@H](O)[C@@H]1C)N(C)C` (stereo not given in full), half-maximal inhibition with HeLa S3 (IC50) required 1.2 nM.
Molecule `COCC(C(=O)O[C@@H]1C/C=C/C=C/C(=O)O[C@H]([C@@H](C)[C@@H](O)[C@@H](C)CC[C@@H](OC(=O)[C@H](C)N(C)C)[C@H](C)[C@H](OC(C)=O)[C@H](C)/C=C/N(C)C=O)C/C=C/[C@H](OC)C[C@H](C)C/C=C(\C)[C@@H](OC)CC[C@@H](C)[C@@H](O)[C@@H]1C)N(C)C` (stereo not given in full) had an IC50 in the experiment with HeLa S3 of 0.01 nM. In addition, the outcome in experiment [2] was inactive. For the same molecule, in the experiment filed under Oryctolagus cuniculus [3], the inhibition entry was “Active”.
For the molecule `COCC(C(=O)O[C@@H]1C/C=C/C=C/C(=O)O[C@H]([C@@H](C)[C@@H](O)[C@@H](C)CC[C@@H](OC(=O)[C@H](C)N(C)C)[C@H](C)[C@H](OC(C)=O)[C@H](C)CC=NOCC(=O)NCCCC[C@H](NC(=O)CCC(=O)NCCCOCCOCCOCCCNC(=O)c2ccc(C3(C(F)(F)F)N=N3)cc2)C(=O)NCCCOCCOCCOCCCNC(=O)CCCC[C@@H]2SC[C@@H]3NC(=O)N[C@@H]32)C/C=C/[C@H](OC)C[C@H](C)C/C=C(\C)[C@@H](OC)CC[C@@H](C)[C@@H](O)[C@@H]1C)N(C)C` (stereo not given in full), in the experiment on HeLa S3, the IC50 is 0.54 nM. Besides, the result (in the experiment filed under Sus scrofa; in experiment [2]) was Active.
Take `COCC(C(=O)O[C@@H]1C/C=C/C=C/C(=O)O[C@H]([C@@H](C)[C@@H](O)[C@@H](C)CC[C@@H](OC(=O)[C@H](C)N(C)C)[C@H](C)[C@H](OC(C)=O)[C@H](C)CC=NOCC(=O)NCCCC[C@H](NC(=O)c2ccc(C3(C(F)(F)F)N=N3)cc2)C(=O)NCCCCCCNC(=O)c2ccc(-c3c4ccc(N(C)C)cc4[o+]c4cc(N(C)C)ccc34)c(C(=O)[O-])c2)C/C=C/[C@H](OC)C[C@H](C)C/C=C(\C)[C@@H](OC)CC[C@@H](C)[C@@H](O)[C@@H]1C)N(C)C` (stereo not given in full): the IC50 in the experiment with HeLa S3 came to 13 nM. Moreover, the result in experiment [4] was inactive. Moreover, the outcome in the experiment filed under Oryctolagus cuniculus [5] was Active.
In the experiment on HeLa S3, `COCC(C(=O)O[C@@H]1C/C=C/C=C/C(=O)O[C@H]([C@@H](C)[C@@H](O)[C@@H](C)CC[C@@H](OC(=O)[C@H](C)N(C)C)[C@H](C)[C@H](OC(C)=O)[C@H](C)CC=NOCC(=O)NCCCC[C@H](NC(=O)CCC(=O)NCCCOCCOCCOCCCNC(=O)c2ccc(C3(C(F)(F)F)N=N3)cc2)C(=O)NCCCCCCNC(=O)c2ccc(-c3c4ccc(N(C)C)cc4[o+]c4cc(N(C)C)ccc34)c(C(=O)[O-])c2)C/C=C/[C@H](OC)C[C@H](C)C/C=C(\C)[C@@H](OC)CC[C@@H](C)[C@@H](O)[C@@H]1C)N(C)C` (stereo not given in full) registered an IC50 of 28 nM. In experiment [4], the outcome was inactive. Moreover, the outcome in the experiment listed under Oryctolagus cuniculus [5] was Active.

The term IC50 denotes the concentration that gives 50% inhibition. A higher IC50 goes with weaker potency.
